Key:
Squalene Synthase = target: T1, Squalene Synthase (Rattus norvegicus, UniProt Q02769); test: Inhibition of Squalene Synthase (formation of squalene from tritiated farnesyl pyrophosphate, rat liver microsomal protein); type: biochemical; details: rat liver microsomes, 20 μM 1-[3H]-farnesyl pyrophosphate, 37° C., 15 minutes; read-out: IC50 (concentration which results in a 50% inhibition of squalene production)
T1 construct: from tissue; host or cells: rat liver microsomes
T1 sequence (Q02769 1-416): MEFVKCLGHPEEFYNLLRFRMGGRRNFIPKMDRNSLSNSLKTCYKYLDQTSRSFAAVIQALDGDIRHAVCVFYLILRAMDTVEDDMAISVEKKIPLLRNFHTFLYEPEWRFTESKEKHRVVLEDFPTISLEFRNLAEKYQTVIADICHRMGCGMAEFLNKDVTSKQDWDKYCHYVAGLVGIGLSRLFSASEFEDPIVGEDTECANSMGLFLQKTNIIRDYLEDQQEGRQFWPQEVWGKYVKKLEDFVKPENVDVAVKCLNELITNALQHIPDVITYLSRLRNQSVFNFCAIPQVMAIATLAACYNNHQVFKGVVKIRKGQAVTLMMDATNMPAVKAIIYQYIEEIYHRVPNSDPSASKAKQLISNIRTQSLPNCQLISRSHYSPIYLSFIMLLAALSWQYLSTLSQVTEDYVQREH
Procedure: (a) Inhibition of Squalene Synthase
In this test, the ability of a compound to prevent the . formation of squalene from a radioactive substrate (tritiated farnesyl pyrophosphate) is assessed.
The test compound is incubated at a concentration of 25 micromolar in 200 μl of a buffered solution containing potassium phosphate (50 mM), MgCl2 (4.95 mM), KF (9.9 mM), NADPH (0.9 mM) and rat liver microsomal protein (20 μg). Rat liver microsomes are prepared by the method described in published European Patent Application No. 324,421 and stored in liquid nitrogen prior to assay. Assay vials are kept at 37° C. throughout the incubation.
The reaction is started with the addition of the substrate (1-[^3 H]-farnesyl pyrophosphate), final concentration 20 μM, and stopped after 15 minutes reaction time with the addition of 50 μl of 4% KOH. The reaction products are separated from unreacted substrate after application to a C-18 octadecyl 1ccBond column (Analytichem Int product No. 617101). An aqueous fraction is eluted with 250 μl of 0.1M KOH. Squalene is then eluted with 1.0 ml 10% ethylacetate in hexane and radioactivity determined. The difference in radioactivity in the presence and absence of the test compound is used to determine the level of inhibition. […] The IC50 can then be determined from a plot of percentage inhibition against concentration of test compound.

[1] = tested on: de novo hepatic cholesterol synthesis; test: Acute Rat Cholesterol Synthesis Assay (de novo hepatic cholesterol synthesis from exogenously administered 14C-acetate); type: in vivo; details: female rats, oral gavage, ip or iv dosing (route not given), [2-14C]-acetate ip 1 hour after dose, blood after a further hour
Procedure: (b) Acute Rat Cholesterol Synthesis Assay
This is an acute in vivo test in the rat to measure de novo hepatic cholesterol synthesis from exogenously administered ^14 C-acetate.
Female rats (35-55 g) are housed in reverse lighting conditions (red light from 0200h-1400h) for a period of about 2 weeks prior to test. Animals are allowed free access to chow and drinking water throughout this period. At test, animals should weigh 125-150 g.
Test compounds may be administered by oral gavage, dissolved or suspended in 0.5% polysorbate, or by ip or iv dosing. Control animals receive vehicle alone. After 1 hour the rats are injected ip with 25 μCi [2-^14 C]-acetate (NEN DUPONT. specific activity, 45-60 mCi/mmol NEC-085H, or AMERSHAM specific activity, 50-60 mCi/mmol CFA 14) in a volume of 0.25 ml saline (100 μCi/ml). After a further hour, rats are terminally anaesthetised with halothane and a blood sample obtained from the abdominal vena cava.
1 ml of plasma is lyophilised and then saponified in 2 ml ethanolic KOH (1 part 33% KOH, 9 parts ethanol) at 75° C. for 2 hours. After addition of an equal quantity of water, non-saponifiable lipids are extracted with two 5 ml volumes of hexane. The hexane extracts are evaporated to dryness and the residues dissolved in ethanol to determine cholesterol specific radioactivity. ED50 values can be determined in the standard way.

SMILES | IC50 (Squalene Synthase) | ED50 [1]
OC1C2CCN(CC2)C1Cc1ccc(-c2ccccc2)cc1 (stereo not drawn) [Example 2, 2-(4-biphenylmethyl)-3-quinuclidinol] | 120 nM | –
c1ccc(-c2ccc(SC3CN4CCC3CC4)cc2)cc1 (stereo not drawn) [Example 10, 3-(4-biphenylthio)quinuclidine] | 21 nM | 46 mg/kg
